Reference: paper PMC8539250, “Synthesis and Anti-HIV Activity of a Novel Series of Isoquinoline-Based CXCR4 Antagonists” (Molecules, 2021)
Where two headings read alike, the source gives them in different places.

Assays:
[1] = target: T1, CXCR4 (Homo sapiens, UniProt P61073); experiment: CXCL12-induced calcium mobilization assay in U87.CD4.CXCR4 cells (FLIPR); assay type: cell-based; settings: concentration needed to inhibit CXCL12-induced calcium signaling by 50%, 6.25 nM CXCL12, mean ± SD
Method: (§1) First, the ability of the compounds to compete with fluorescently labeled CXCL12 (CXCL12^AF647) for binding at CXCR4 was determined. […] Finally, given the role of CXCR4 as a major coreceptor for HIV entry, the antiviral activity of the compounds against the X4-tropic wild type HIV-1 NL4–3 strain and the HIV-2 ROD strain was determined in MT-4 cells. In parallel, the cytotoxicity of the compounds for uninfected MT-4 cells was assessed.
The calcium mobilization assay has been described in detail previously. U87.CD4.CXCR4 cells (2 × 10^4 cells per well in DMEM/10% FBS/0.01 M HEPES) were seeded in gelatin-coated (Sigma-Aldrich; 0.1% gelatin in DPBS) black-walled 96-well plates and incubated overnight at 37 °C and 5% CO2. The next day, cells were loaded with the fluorescent calcium indicator Fluo-2 acetoxymethyl (AM) ester (4 μM; Abcam) and incubated at room temperature in the dark for 45 min. Then, cells were incubated with various concentrations of the compounds for 10 min prior to the addition of 6.25 nM CXCL12 (in assay buffer). Fluctuations in intracellular calcium levels were measured in real time by the FLIPR Tetra® (Molecular Devices, Sunnyvale, CA, USA) in all 96 wells simultaneously. The response over baseline (after CXCL12 addition) was calculated with the ScreenWorks 4.0® software (Molecular Devices, Version 4.0, www.moleculardevices.com, accessed on 10 January 2015) by dividing the obtained relative light units (RLUs) through the base line measured just before CXCL12 addition. From this the IC50 value for each compound was determined taking into account the negative (i.e., untreated cells without CXCL12 stimulation) and positive (i.e., untreated cells with CXCL12 addition) control samples.

[2] = target: T1, CXCR4; experiment: CXCL12AF647 competition binding assay with Jurkat cells (flow cytometry); set-up: endogenous in cells; host or cells: Jurkat cells
Method: as §1
The CXCL12^AF647 binding assay with Jurkat cells has been described previously. Briefly, Jurkat cells were resuspended in assay buffer [Hank’s Balanced Salt Solution (HBSS, Thermo Fisher Scientific), 20 mM HEPES buffer, 0.2% bovine serum albumin (Sigma-Aldrich), pH 7.4] at 3 × 10^5 cells per sample and then treated with various concentrations of the compound at room temperature for 15 min. Afterwards, the cells were incubated with 2.9 nM CXCL12^AF647 (in assay buffer) at room temperature for 30 min in the dark. Cells were fixed in 1% paraformaldehyde in DPBS and specific CXCL12^AF647 binding [i.e., mean fluorescence intensity (MFI)] was quantified by flow cytometry (FACSCanto^TM II; Becton Dickinson). Data were analyzed with FlowJo® Software. The 50% inhibitory concentration (IC50) was calculated for each compound relative to the negative (i.e., autofluorescence of untreated and unlabeled cells) and positive (i.e., untreated cells exposed to CXCL12^AF647 only) control.

[3] = Cytotoxicity in mock-infected MT-4 cells; assay type: cell-based; settings: human, mock-infected (uninfected) MT-4 cells, concentration reducing viability of mock-infected MT4 cells by 50%; mean ± SD
Method: (§2) First, the ability of the compounds to compete with fluorescently labeled CXCL12 (CXCL12^AF647) for binding at CXCR4 was determined. Second, since binding of CXCL12 to CXCR4 results into a transient increase of cytosolic calcium levels, the inhibition of this CXCL12-induced calcium mobilization by the various compounds was also investigated. […] In parallel, the cytotoxicity of the compounds for uninfected MT-4 cells was assessed. […] The CD4 cell line MT-4 was obtained from the American Type Culture Collection (Rockville, MD, USA) and cultured in RPMI 1640 medium (Gibco BRL, Gaithersburg, MD, USA) with 10% heat-inactivated fetal calf serum (Biowhittaker Europe, Verviers, Belgium) and 2 mmol/L L-glutamine (Gibco BRL). The anti-HIV-1 and anti-HIV-2 activity in MT-4 cells was determined using a tetrazolium-based colorimetric assay. This assay been described in detail before. Threefold dilutions of the drugs in 100 μL medium were added to duplicate wells of 96-well flat bottom plates (Iwaki Glass). […] The cytopathic effect induced by the virus was checked regularly microscopically. […] The absorbance was then recorded at 490 nm with a 96-well plate reader and compared with four cell control replicates (cells without virus and drugs) and four virus control wells (cells with virus but without drug). Each assay was performed at least three times. […] Absorbance was recorded using the VersaMax ELISA™ microplate reader (Molecular Devices) and analyzed with the Softmax Pro® software (Molecular Devices, Version 4.0, www.moleculardevices.com, accessed on 10 January 2015). Using mock-infected cells, the cytotoxic concentration 50 (CC50) of each compound was investigated.

[4] = tested on: HIV-1 NL4.3; experiment: Anti-HIV-1 assay in MT-4 cells (tetrazolium-based colorimetric, cytopathic effect); assay type: cell-based; settings: Human immunodeficiency virus 1, MT4
Method: (§3) First, the ability of the compounds to compete with fluorescently labeled CXCL12 (CXCL12^AF647) for binding at CXCR4 was determined. Second, since binding of CXCL12 to CXCR4 results into a transient increase of cytosolic calcium levels, the inhibition of this CXCL12-induced calcium mobilization by the various compounds was also investigated. […] In parallel, the cytotoxicity of the compounds for uninfected MT-4 cells was assessed. […] The CD4 cell line MT-4 was obtained from the American Type Culture Collection (Rockville, MD, USA) and cultured in RPMI 1640 medium (Gibco BRL, Gaithersburg, MD, USA) with 10% heat-inactivated fetal calf serum (Biowhittaker Europe, Verviers, Belgium) and 2 mmol/L L-glutamine (Gibco BRL). […] The anti-HIV-1 and anti-HIV-2 activity in MT-4 cells was determined using a tetrazolium-based colorimetric assay. […] Threefold dilutions of the drugs in 100 μL medium were added to duplicate wells of 96-well flat bottom plates (Iwaki Glass). […] The cytopathic effect induced by the virus was checked regularly microscopically. […] Each assay was performed at least three times. […] Absorbance was recorded using the VersaMax ELISA™ microplate reader (Molecular Devices) and analyzed with the Softmax Pro® software (Molecular Devices, Version 4.0, www.moleculardevices.com, accessed on 10 January 2015). Using mock-infected cells, the cytotoxic concentration 50 (CC50) of each compound was investigated.

[5] = tested on: HIV-2 ROD; experiment: Anti-HIV-2 assay in MT-4 cells (tetrazolium-based colorimetric, cytopathic effect); assay type: cell-based; settings: Human immunodeficiency virus 2, MT4
Method: as §3

[6] = tested on: MT-4 cells; experiment: Cytotoxicity in mock-infected MT-4 cells; assay type: cell-based
Method: as §2

[7] = concentration needed to inhibit CXCL12 receptor binding by 50%, Jurkat cells, 2.9 nM CXCL12AF647, mean ± SD
[8] = 50% protection of MT-4 cells against HIV-induced cytopathicity, mean ± SD, read-out: HIV-1 NL4.3 EC50
[9] = 50% protection of MT-4 cells against HIV-induced cytopathicity, mean ± SD, read-out: HIV-2 ROD EC50
[10] = MT-4 cells, read-out: EC50 against HIV-1
[11] = MT-4 cells, read-out: EC50 against HIV-2

T1 sequence (P61073 whole entry): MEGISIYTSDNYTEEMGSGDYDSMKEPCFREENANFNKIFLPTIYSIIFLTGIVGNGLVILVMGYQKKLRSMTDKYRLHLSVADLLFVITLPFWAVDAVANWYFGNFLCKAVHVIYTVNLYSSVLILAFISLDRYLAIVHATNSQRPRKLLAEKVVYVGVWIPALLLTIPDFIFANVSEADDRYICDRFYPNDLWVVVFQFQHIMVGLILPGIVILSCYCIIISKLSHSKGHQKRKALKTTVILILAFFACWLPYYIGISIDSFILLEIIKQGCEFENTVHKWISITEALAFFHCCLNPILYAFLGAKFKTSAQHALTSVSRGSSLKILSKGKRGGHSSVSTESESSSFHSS

Row | SMILES | IC50 [1] [nM] | IC50 [2, 7] [nM] | CC50 at 4 d [3] [nM] | EC50 [4, 8] [nM] | EC50 [5, 9] [nM] | cytotoxicity for the MT4 cell line (in words) [6] | EC50 [4, 10] [nM] | EC50 [5, 11] [nM] | CC50 ([6]; concentration reducing viability of mock-infected MT4 cells by 50%, mean ± SD) [nM] | IC50 ([2]; competition with CXCL12 for binding to CXCR4) [nM]
1 | COc1cc2ccnc(CN(CCCCN)C3CCCc4cccnc43)c2cc1OC (stereo not drawn) [Compound 19a, N1-((6,7-Dimethoxyisoquinolin-1-yl)methyl)-N1-(5,6,7,8-tetrahydroquinolin-8-yl)butane-1,4-diamine] | 25 ± 8.1 | 7.2 ± 3.2 | > 100000 | 74 ± 27 | 42 ± 13 | – | – | – | – | –
2 | COc1ccc2c(CN(CCCCN)C3CCCc4cccnc43)nccc2c1 (stereo not drawn) [Compound 19b, N1-((6-Methoxyisoquinolin-1-yl)methyl)-N1-(5,6,7,8-tetrahydroquinolin-8-yl)butane-1,4-diamine] | 28 ± 4.9 | 2.5 ± 1.2 | 11100 ± 540 | 61 ± 31 | 77 ± 19 | – | – | – | – | –
3 | NCCCCN(Cc1nccc2cc(F)ccc12)C1CCCc2cccnc21 (stereo not drawn) [Compound 19c, N1-((6-Fluoroisoquinolin-1-yl)methyl)-N1-(5,6,7,8-tetrahydroquinolin-8-yl)butane-1,4-diamine] | 33 ± 21 | 8.9 ± 5.6 | 18100 ± 6820 | 16 ± 12 | 11 ± 5.6 | – | – | – | – | –
4 | NCCCCN(Cc1nccc2cc(Br)ccc12)C1CCCc2cccnc21 (stereo not drawn) [Compound 19d, N1-((6-Bromoisoquinolin-1-yl)methyl)-N1-(5,6,7,8-tetrahydroquinolin-8-yl)butane-1,4-diamine] | 440 ± 210 | 26 ± 1.7 | 43600 ± 1770 | 550 ± 360 | 550 ± 360 | – | – | – | – | –
5 | NCCCCN(Cc1nccc2ccccc12)C1CCCc2cccnc21 (stereo not drawn) [Compound 19e, N1-(Isoquinolin-1-ylmethyl)-N1-(5,6,7,8-tetrahydroquinolin-8-yl)butane-1,4-diamine] | 130 ± 41 | 9.2 ± 4.2 | 26700 ± 18600 | 84 ± 15 | 26 ± 30 | lack cytotoxicity | < 100 | < 100 | – | –
6 | NCCCCN(Cc1ccccn1)C1CCCc2cccnc21 (stereo not drawn) [Compound 20, N1-(Pyridin-2-ylmethyl)-N1-(5,6,7,8-tetrahydroquinolin-8-yl)butane-1,4-diamine] | – | – | 55400 ± 720 | 58 ± 71 | 58 ± 22 | lack cytotoxicity | < 100 | < 100 | – | –
7 | COc1cc2ccnc(CN(CCCCN)Cc3ncccc3C)c2cc1OC [Compound 24a, N1-((6,7-dimethoxyisoquinolin-1-yl)methyl)-N1-((3-methylpyridin-2-yl)methyl)butane-1,4-diamine] | 13 ± 5.3 | 3.2 ± 0.99 | > 100000 | 23 ± 8 | 24 ± 1.8 | lack cytotoxicity | < 100 | < 100 | – | –
8 | COc1ccc2c(CN(CCCCN)Cc3ncccc3C)nccc2c1 [Compound 24b, N1-((6-Methoxyisoquinolin-1-yl)methyl)-N1-((3-methylpyridin-2-yl)methyl)butane-1,4-diamine] | 3850 ± 190 | 890 ± 460 | 9270 ± 460 | > 9270 | > 9270 | – | – | – | – | –
9 | Cc1cccnc1CN(CCCCN)Cc1nccc2cc(F)ccc12 [Compound 24c, N1-((6-Fluoroisoquinolin-1-yl)methyl)-N1-((3-methylpyridin-2-yl)methyl)butane-1,4-diamine] | 6.1 ± 1 | 0.64 ± 0.17 | 31000 | 6.2 ± 5.9 | 3.8 ± 0.29 | lack cytotoxicity | < 100 | < 100 | 30800 ± 880 | –
10 | Cc1cccnc1CN(CCCCN)Cc1nccc2cc(Br)ccc12 [Compound 24d, N1-((6-Bromoisoquinolin-1-yl)methyl)-N1-((3-methylpyridin-2-yl)methyl)butane-1,4-diamine] | 690 ± 230 | 39 ± 24 | 29500 ± 9760 | 2540 ± 910 | 2540 ± 910 | – | – | – | – | –
11 | Cc1cccnc1CN(CCCCN)Cc1nccc2ccccc12 [Compound 24e, N1-(Isoquinolin-1-ylmethyl)-N1-((3-methylpyridin-2-yl)methyl)butane-1,4-diamine] | 930 ± 720 | 26 ± 14 | 40900 ± 6530 | 770 ± 290 | 2290 ± 350 | – | – | – | – | –
12 | Cc1cccnc1CN(CCCCN)Cc1ccccn1 [Compound 25, N1-((3-Methylpyridin-2-yl)methyl)-N1-(pyridin-2-ylmethyl)butane-1,4-diamine] | 180 ± 23 | 6.2 ± 0.57 | 79800 ± 13100 | 230 ± 210 | 170 ± 160 | – | – | – | – | 0.6
13 | c1cc(CN2CCCNCCNCCCNCC2)ccc1CN1CCCNCCNCCCNCC1 [Plerixafor, reference compound] | – | – | 6290 ± 720 | 4.9 ± 3.2 | 8.1 ± 4.2 | – | – | – | – | –
